Reference: the supplement of paper PMC10307832

Key:
Assay in all cases: relative viability (nuclei count vs DMSO), 5 days (fraction); higher = more cells survive
Dasatinib + Vorinostat = compound: Cc1nc(Nc2ncc(C(=O)Nc3c(C)cccc3Cl)s2)cc(N2CCN(CCO)CC2)n1 [Dasatinib] + O=C(CCCCCCC(=O)Nc1ccccc1)NO [Vorinostat] (partner 1 µM)
Method in brief: (§1)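 Medians of duplicate plates are given as relative viability. That measure is the nuclei count in treated wells divided by the count in vehicle wells. Counts were taken on 4× images of lung cancer cell lines in 1536-well plates, 5 days after pin-tool dosing the day after seeding with one drug alone or a fixed anchor-drug dose plus five library-drug doses (not always all listed) in √10 steps.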

ALW-II-49-7 + Alpelisib = compound: Cc1ccc(C(=O)Nc2cccc(C(F)(F)F)c2)cc1Nc1cncc(C(N)=O)c1 [ALW-II-49-7] + Cc1nc(NC(=O)N2CCC[C@H]2C(N)=O)sc1-c1ccnc(C(C)(C)C(F)(F)F)c1 [Alpelisib] (partner 2 µM)
Method in brief: as §1

Dasatinib + Luminespib = compound: Cc1nc(Nc2ncc(C(=O)Nc3c(C)cccc3Cl)s2)cc(N2CCN(CCO)CC2)n1 [Dasatinib] + CCNC(=O)c1noc(-c2cc(C(C)C)c(O)cc2O)c1-c1ccc(CN2CCOCC2)cc1 [Luminespib] (partner 0.01 µM)
Method in brief: as §1

ALW-II-49-7 + Navitoclax = compound: Cc1ccc(C(=O)Nc2cccc(C(F)(F)F)c2)cc1Nc1cncc(C(N)=O)c1 [ALW-II-49-7] + CC1(C)CCC(c2ccc(Cl)cc2)=C(CN2CCN(c3ccc(C(=O)NS(=O)(=O)c4ccc(N[C@H](CCN5CCOCC5)CSc5ccccc5)c(S(=O)(=O)C(F)(F)F)c4)cc3)CC2)C1 [Navitoclax] (partner 0.5 µM)
Method in brief: as §1

| Cell Line | relative viability (Dasatinib + Vorinostat; first compound 0.005 µM) | relative viability (Dasatinib + Vorinostat; first compound 0.01581 µM) | relative viability (Dasatinib + Vorinostat; first compound 0.05 µM) | relative viability (Dasatinib + Vorinostat; first compound 0.1581 µM) | relative viability (Dasatinib + Vorinostat; first compound 0.5 µM) | relative viability (ALW-II-49-7 + Alpelisib; first compound 0.08 µM) | relative viability (ALW-II-49-7 + Alpelisib; first compound 0.253 µM) | relative viability (ALW-II-49-7 + Alpelisib; first compound 0.8 µM) | relative viability (ALW-II-49-7 + Alpelisib; first compound 2.53 µM) | relative viability (ALW-II-49-7 + Alpelisib; first compound 8 µM) | relative viability (Dasatinib + Luminespib; first compound 0.005 µM) | relative viability (Dasatinib + Luminespib; first compound 0.01581 µM) | relative viability (Dasatinib + Luminespib; first compound 0.05 µM) | relative viability (Dasatinib + Luminespib; first compound 0.1581 µM) | relative viability (Dasatinib + Luminespib; first compound 0.5 µM) | relative viability (ALW-II-49-7 + Navitoclax; first compound 0.08 µM) | relative viability (ALW-II-49-7 + Navitoclax; first compound 0.253 µM) | relative viability (ALW-II-49-7 + Navitoclax; first compound 0.8 µM) | relative viability (ALW-II-49-7 + Navitoclax; first compound 2.53 µM) | relative viability (ALW-II-49-7 + Navitoclax; first compound 8 µM) |
| --- | --- | --- | --- | --- | --- | --- | --- | --- | --- | --- | --- | --- | --- | --- | --- | --- | --- | --- | --- | --- |
| LCLC-97TM1 | 0.91 | 0.829 | 0.905 | 0.523 | 0.35 | 0.245 | 0.245 | 0.296 | 0.195 | 0.269 | 0.844 | 0.798 | 0.901 | 0.598 | 0.309 | 0.628 | 0.334 | 0.57 | 0.131 | 0.431 |
| NCI-H520 | 0.677 | 0.476 | 0.418 | 0.227 | 0.229 | 0.799 | 0.865 | – | 0.964 | 0.954 | 0.184 | 0.209 | 0.221 | 0.194 | 0.197 | 1.04 | 1.23 | – | 1.03 | 1.01 |
| NCI-H1993 | 0.722 | 0.73 | 0.692 | 0.394 | 0.435 | 0.691 | 0.644 | 0.671 | 0.72 | 0.688 | 0.883 | 0.598 | 0.971 | 0.432 | 0.543 | 0.85 | 0.927 | 0.904 | 0.785 | 1.08 |
| NCI-H1437 | 0.972 | 1.04 | 1.03 | 0.914 | 0.59 | 0.949 | 1.01 | – | 0.901 | 0.959 | 1.11 | 1.12 | 1.16 | 1.08 | 0.665 | 1.11 | 1.17 | – | 1.07 | 1.06 |
| LC-2-ad | 0.723 | 0.675 | 0.75 | 0.493 | 0.337 | 0.911 | 0.884 | 0.847 | 0.892 | 0.864 | 1.1 | 1.11 | 0.86 | 0.774 | 0.376 | 0.445 | 0.463 | 0.37 | 0.341 | 0.42 |
| HARA | 0.508 | 0.474 | 0.438 | 0.272 | 0.274 | 0.904 | 0.883 | 0.844 | 0.834 | 0.987 | 0.774 | 0.552 | 0.413 | 0.207 | 0.133 | 1.22 | 1.07 | 1.13 | 1.15 | 1.22 |
| NCI-H650 | 0.413 | 0.564 | 0.381 | 0.384 | 0.287 | 1.14 | 1.08 | 1.13 | 0.353 | 0.669 | 0.771 | 0.777 | 0.852 | 0.401 | 0.213 | – | – | – | – | – |
| NCI-H522 | 1.03 | 0.822 | 0.962 | 0.788 | 0.84 | – | – | – | – | – | 1.16 | 0.913 | 1.08 | 0.775 | 0.923 | – | – | – | – | – |
| ABC-1 | 1.18 | 1.17 | 0.731 | 0.787 | 0.706 | 0.945 | 0.937 | 1.06 | 0.967 | 0.973 | 0.562 | 0.52 | 0.314 | 0.411 | 0.293 | – | – | – | – | – |
| NCI-H1563 | – | – | – | – | – | 0.946 | 0.941 | 1.01 | 0.977 | 0.976 | 0.546 | 0.466 | 0.495 | 0.423 | 0.405 | – | – | – | – | – |
| NCI-H1703 | – | – | – | – | – | 0.331 | 0.322 | 0.258 | 0.297 | 0.182 | – | – | – | – | – | 1.02 | 1.08 | 0.964 | 0.406 | 0.291 |
| NCI-H661 | 0.927 | 0.791 | 0.851 | 0.813 | 0.74 | 0.665 | 0.691 | 0.645 | – | 0.522 | 0.99 | 1.02 | 1 | 0.844 | 0.657 | – | – | – | – | – |
| HCC-78 | 0.373 | 0.354 | 0.324 | 0.336 | 0.219 | 0.275 | 0.309 | 0.351 | 0.325 | 0.337 | – | – | – | – | – | 1.01 | 0.682 | 0.787 | 0.744 | 0.641 |
| LCLC-103H | 0.852 | 0.787 | 0.694 | 0.582 | 0.293 | 0.933 | 0.968 | 0.993 | 1.14 | 0.972 | 0.83 | 0.88 | 0.733 | 0.52 | 0.275 | – | – | – | – | – |
| NCI-H1792 | – | – | – | – | – | 0.512 | 0.459 | 0.586 | 0.504 | 0.473 | 0.467 | 0.306 | 0.244 | 0.249 | 0.2 | 0.351 | 0.438 | 0.725 | 0.654 | 0.327 |
| NCI-H1648 | 0.374 | 0.481 | 0.606 | 0.266 | 0.179 | – | – | – | – | – | – | – | – | – | – | – | – | – | – | – |
| EBC-1 | – | – | – | – | – | 0.791 | 0.783 | 0.731 | 0.644 | 0.522 | – | – | – | – | – | 0.403 | 0.377 | 0.348 | 0.321 | 0.277 |
| NCI-H1650 | 0.591 | 0.61 | 0.568 | 0.406 | 0.278 | – | – | – | – | – | 0.228 | 0.199 | 0.236 | 0.177 | 0.187 | 1.05 | 1.06 | 1.32 | 1.34 | 1.21 |
| NCI-H1299 | – | – | – | – | – | 1.08 | 0.974 | 1.11 | 1.17 | 0.968 | – | – | – | – | – | 1.03 | 1.08 | 1.05 | 1.07 | 0.968 |
| A549 | – | – | – | – | – | 0.82 | 0.756 | 0.728 | 0.802 | 0.712 | – | – | – | – | – | 1.2 | 1.21 | 1.33 | 1.15 | 1.21 |
| IA-LM | 1.13 | 0.89 | 1.03 | 0.691 | 0.538 | 0.768 | 0.523 | 0.653 | 0.321 | 0.112 | – | – | – | – | – | 0.84 | 0.551 | 0.689 | 0.213 | 0.0967 |
